Measured values as given in publication PMC5180209 (Structure (London, England : 1993), 2016).

Molecular target: B56 (Homo sapiens, UniProt Q13362)
Assay: Isothermal titration calorimetry
Format: binding
Conditions: ITC

KLpSPIIED
reduction of binding to B56 on removing residue 676 altogether (668KLpSPIIED675 compared with the 668-676 peptides): ~ 1.7 fold

KLpSPIIEDE
increase of binding affinity for B56 as the salt concentration is reduced (salt concentration 300 mM to 150 mM): ~ 3.6 fold
